Source: patent publication US20250027072A1, “METHODS AND CO[…] TO ENGINEERED CANNABINOID RECEPTORS” (priority 2021, published 2025)
Entries after “also recorded” stand apart in the source; their conditions may differ. Where two headings read alike, the source gives them in different places.

What was measured:
Assay type in all cases: cell-based
[1] = molecular target: T1, human Cannabinoid Receptor 1 (CB1R) (Homo sapiens, UniProt P21554); settings: for Normalized Activity at 1 μM, CB1R: PINACA compounds; for Normalized Activity at 1 μm, CB1R: 5-fluoro PB-22 isomers; for EC50: read-out: EC50 at CB1R, synthetic cannabinoid dose response
T1 construct: syn-prepro (synthetic yeast pre-pro secretion leader) (N); expressed in transfected cells; host or cells: Saccharomyces cerevisiae BY4741-derived strain (ste2, sst2, far1 knocked out); Gpa1-Gαi3 chimera
T1 sequence (P21554 90-472): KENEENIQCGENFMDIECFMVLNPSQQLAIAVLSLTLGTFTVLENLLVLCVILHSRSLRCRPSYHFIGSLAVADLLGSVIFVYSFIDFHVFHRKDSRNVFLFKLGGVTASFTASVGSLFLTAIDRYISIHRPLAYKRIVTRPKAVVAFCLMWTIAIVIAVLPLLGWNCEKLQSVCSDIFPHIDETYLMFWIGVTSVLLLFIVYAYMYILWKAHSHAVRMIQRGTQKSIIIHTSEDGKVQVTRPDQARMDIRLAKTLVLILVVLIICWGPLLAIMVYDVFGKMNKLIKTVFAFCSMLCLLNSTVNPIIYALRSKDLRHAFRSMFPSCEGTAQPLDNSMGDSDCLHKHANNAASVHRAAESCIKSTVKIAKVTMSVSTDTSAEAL

[2] = molecular target: human cannabinoid receptor type II (CB2R) (Homo sapiens, UniProt P34972); experiment: cell-based; design: Normalized Activity at 1 μM, CB2R; other: PINACA compounds, 1 μM; Normalized Activity at 1 μm, CB2R; other: 5-fluoro PB-22 isomers, 1 μm; other: MFα-CB2R, ST03 sterol strain, pH 5.8; activity against CB2R; other: at 10 nM, dose response; preference at CB2R of ADB-BINACA over AB-PINACA; signaling at CB2R in synthetic cannabinoid screen; fused on or other part: yeast mating factor alpha (MFα) pre-pro leader fused at the N-terminus as a trafficking signal; settings: for Normalized Activity at 1 μm, CB2R: 5-fluoro PB-22 isomers; for Normalized Activity at 1 μM, CB2R: PINACA compounds; for signaling at CB2R in synthetic cannabinoid screen: compounds at 1 μM
human cannabinoid receptor type II (CB2R) (Homo sapiens, UniProt P34972), sequence (P34972 whole entry, the tested form may be a part): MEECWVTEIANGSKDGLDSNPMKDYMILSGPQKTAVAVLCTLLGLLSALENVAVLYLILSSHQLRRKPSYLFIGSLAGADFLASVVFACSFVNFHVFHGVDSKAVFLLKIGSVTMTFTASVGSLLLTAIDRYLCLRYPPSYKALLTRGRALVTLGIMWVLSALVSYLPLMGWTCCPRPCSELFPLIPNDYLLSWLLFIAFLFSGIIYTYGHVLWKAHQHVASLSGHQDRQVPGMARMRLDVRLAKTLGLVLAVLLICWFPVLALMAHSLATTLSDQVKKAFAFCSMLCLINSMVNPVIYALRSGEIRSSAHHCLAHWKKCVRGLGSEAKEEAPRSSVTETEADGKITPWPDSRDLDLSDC
Protocol: (§1) To efficiently transduce signals from the human machinery to the yeast pathway, the yeast 5 C-terminal residues of the G-alpha gene GPA1 were replaced with the sequence of the Gαi3 human G-alpha variant as previously described (Brown et al. 2000). ZsGreen1 was used to report on the activity of the pathway, integrating it into the genome in place of the pheromone-inducible Fig1 gene (FIG. 14A).
(§2) Yeast colonies were picked and grown overnight to saturation in pH 5.8 SD-His media in a 2.2 mL deep well plate (Axygen) grown in a plate-shaking incubator (30° C., 1000 rpm, 3 mm orbital). In the morning cultures were diluted 1:10 or 1:25 in SD-His media buffered to pH 7.1 with 100 mM MOPSO (unless otherwise specified). Ligands were added to the culture and incubated with shaking for 8 hours. Cells were then washed three times with ice-cold Tris buffer (pH 7) and diluted 1:20 for cytometry. All cytometry was performed on a Sony SA3800 spectral analyzer. Each sample was tested for 10,000 events, and read at a rate of 1,000 events per second. All assays as reported here were filtered only for singlet populations.

[3] = tested on: human cannabinoid receptor type II (CB2R); experiment: cell-based; settings: dual biosensor screen at 1 μM
Protocol: as §1, §2

[4] = syn-prepro-Δ89-CB1R, wild type ergosterol strain

CCN(CC)CCN1C(=O)CN=C(c2ccccc2F)c2cc(Cl)ccc21 [Flurazepam]
signaling at CB1R in synthetic cannabinoid screen relative to 100 μM ACEA positive control ([1]; compounds at 1 μM): did not show strong signal; also recorded: does not strongly activate the CB1R

CCCCCn1nc(C(=O)N[C@H](C(N)=O)C(C)C)c2ccccc21 [drawing 1]
Normalized Activity at 1 μM, CB1R [1]: 0.550

CCCC(F)Cn1nc(C(=O)Oc2cccc3cccnc23)c2ccccc21 (stereo not shown)
Normalized Activity at 1 μm, CB1R [1]: 0.531 | Normalized Activity at 1 μm, CB2R [2]: 0.582

CCCC(F)Cn1nc(C(=O)NC(C(N)=O)C(C)C)c2ccccc21 (stereo not shown)
Normalized Activity at 1 μM, CB1R [1]: 0.632 | Normalized Activity at 1 μM, CB2R [2]: 0.340

C=C1CCC[C@]2(C)CC[C@@H](C(C)(C)O)C[C@@H]12 [β-Eudesmol]
signaling at CB1R at lower concentration ([1]; 10 μM, dose response): showed signaling | signaling at CB1R in terpene screen ([1]; terpenes at 100 μM, normalized to 100 μM ACEA): activate CB1R

CCC(F)CCn1cc(C(=O)C2C(C)(C)C2(C)C)c2ccccc21 (single isomer, unassigned) [XLR11 N-(3-fluoropentyl) isomer]
receptor bias CB2R versus CB1R [3]: CB2R-biased

CCCCCn1nc(C(=O)NC(C(N)=O)C(C)(C)C)c2ccccc21 (stereo not shown) [drawing 2]
Normalized Activity at 1 μM, CB1R [1]: 0.590 | Normalized Activity at 1 μM, CB2R [2]: 0.700

CCCCCn1cc(-c2nc(CN(CC)CC)cs2)c2ccccc21 [PTI-1]
signaling at CB1R in synthetic cannabinoid screen relative to 100 μM ACEA positive control ([1]; compounds at 1 μM): CB1R agonists | signaling at CB2R in synthetic cannabinoid screen [2]: poor CB2R signalers

CCCCCn1c(O)c(N=NC(=O)c2ccccc2)c2ccc(OC)cc21 [MDA 77]
signaling at CB1R in synthetic cannabinoid screen relative to 100 μM ACEA positive control ([1]; compounds at 1 μM): at most approximately half the relative fluorescence of the ACEA positive control

O=C(Oc1ccc2ccncc2c1)c1cn(CCCCCF)c2ccccc12
Normalized Activity at 1 μm, CB2R [2]: 0.339

O=C(Oc1cncc2ccccc12)c1cn(CCCCCF)c2ccccc12
Normalized Activity at 1 μm, CB1R [1]: 0.570

CCCCCn1nc(C(=O)N[C@@H](CCCC)C(N)=O)c2ccccc21
Normalized Activity at 1 μM, CB1R [1]: 0.735 | Normalized Activity at 1 μM, CB2R [2]: 0.460

CCCCCCC(C)(C)c1cc(O)c2c(c1)OC(C)(C)[C@H]1CC=C(CO)C[C@H]21 [HU-211]
signaling at CB1R in synthetic cannabinoid screen relative to 100 μM ACEA positive control [1]: at most approximately half the relative fluorescence of the ACEA positive control

O=C(Oc1ccnc2ccccc12)c1cn(CCCCCF)c2ccccc12 [drawing 16]
Normalized Activity at 1 μm, CB1R [1]: 0.829 | Normalized Activity at 1 μm, CB2R [2]: 0.247

CCC(C)(NC(=O)c1nn(Cc2ccc(F)cc2)c2ccccc12)C(N)=O (single isomer, unassigned; isomer 2) [AB-FUBINACA isomer 2]
maximal signaling in CB1R dose response ([1]; dose-response curves): lower response | EC50 [1, 4]: 0.23 nM

CCC(F)CCn1nc(C(=O)NC(C(N)=O)C(C)C)c2ccccc21 (stereo not shown)
Normalized Activity at 1 μM, CB1R [1]: 0.700 | Normalized Activity at 1 μM, CB2R [2]: 0.310

CCCCCn1nc(C(=O)NC(C(N)=O)C(C)(C)C)c2ccccc21 (stereo not shown) [ADB-PINACA]
relative fluorescence of the ACEA positive control at CB1R ([1]; compounds at 10 nM, 100 μM ACEA control): strong signaling | signaling at CB1R in synthetic cannabinoid screen relative to 100 μM ACEA positive control ([1]; compounds at 1 μM): maximal fluorescence | EC50 at CB1R, synthetic cannabinoid dose response [1, 4]: low nanomolar range | EC50 [1, 4]: 0.09 nM | signaling at CB2R in synthetic cannabinoid screen [2]: high activity

O=C(Oc1ccc2cnccc2c1)c1cn(CCCCCF)c2ccccc12
Normalized Activity at 1 μm, CB2R [2]: 0.331

O=C(Oc1cccc2ccncc12)c1cn(CCCCCF)c2ccccc12
Normalized Activity at 1 μm, CB2R [2]: 0.771

CC(C)[C@H](NC(=O)c1cn(CC2CCCCC2)c2ccccc12)C(N)=O [AB-CHMICA]
signaling at CB1R in synthetic cannabinoid screen relative to 100 μM ACEA positive control ([1]; compounds at 1 μM): CB1R agonists | signaling at CB2R in synthetic cannabinoid screen [2]: poor CB2R signalers
